The target of this test is T1, UGT2B7 (Homo sapiens, UniProt P16662).
T1 sequence (P16662 24-529): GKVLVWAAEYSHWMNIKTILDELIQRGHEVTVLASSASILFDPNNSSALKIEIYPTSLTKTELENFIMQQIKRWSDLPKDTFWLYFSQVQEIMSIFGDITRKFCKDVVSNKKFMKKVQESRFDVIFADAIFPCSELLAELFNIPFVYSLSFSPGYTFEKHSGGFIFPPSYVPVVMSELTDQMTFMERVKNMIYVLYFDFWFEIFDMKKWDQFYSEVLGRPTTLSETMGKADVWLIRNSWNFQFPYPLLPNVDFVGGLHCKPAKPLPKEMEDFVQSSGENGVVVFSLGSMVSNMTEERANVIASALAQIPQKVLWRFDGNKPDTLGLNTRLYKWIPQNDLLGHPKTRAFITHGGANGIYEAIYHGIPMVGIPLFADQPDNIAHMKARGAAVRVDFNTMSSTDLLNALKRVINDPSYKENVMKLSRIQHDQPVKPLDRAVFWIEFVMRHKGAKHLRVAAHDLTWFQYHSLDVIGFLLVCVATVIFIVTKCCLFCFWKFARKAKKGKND
The test is described as follows: inhibition of naloxone glucuronidation in human liver microsomes, HPLC. It is filed as biochemical.

The text below walks through data of PMC9158366, “The inhibition of tamoxifen on UGT2B gene expression and enzyme activity in rat liver contribute to the estrogen homeostasis dysregulation” (BMC Pharmacology & Toxicology, 2022).

For the molecule `CC/C(=C(\c1ccccc1)c1ccc(OCCN(C)C)cc1)c1ccccc1` [tamoxifen], the Ki (commonly a measure of affinity in units of concentration, obtained from inhibition or displacement) worked out at 37.7 µM.
